Results: ChEMBL document CHEMBL1201862, “PubChem BioAssay data set” (2004)
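Briefly, cells in 96-well plates were exposed to five compound concentrations for 48 h, and endpoints were estimated by linear interpolation. GI50 = concentration required for 50% inhibition of growth.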 Calls of active or inactive are those of the source. No stated cut-off is given here; in the data, active = GI50 up to about 1.1 µM and inactive = higher.

Legend:
Experiment in all cases: DTP human tumour cell line panel, 48 h
SK-MEL-28 = system: SK-MEL-28
EKVX = system: EKVX
ACHN = system: ACHN
Hs-578T = system: Hs-578T
RXF 393 = system: RXF 393
SK-OV-3 = system: SK-OV-3
NCI-H522 = system: NCI-H522
HCT-15 = system: HCT-15
OVCAR-8 = system: OVCAR-8
SF-268 = system: SF-268
MCF7 = system: MCF7
SN12C = system: SN12C
PC-3 = system: PC-3
U-251 = system: U-251
NCI-H23 = system: NCI-H23
HOP-62 = system: HOP-62
HT-29 = system: HT-29
Malme-3M = system: Malme-3M
HCC 2998 = system: HCC 2998

SMILES	GI50 (SK-MEL-28)	GI50 (EKVX)	GI50 (ACHN)	GI50 (Hs-578T)	GI50 (RXF 393)	GI50 (SK-OV-3)	GI50 (NCI-H522)	GI50 (HCT-15)	GI50 (OVCAR-8)	GI50 (SF-268)	GI50 (MCF7)	GI50 (SN12C)	GI50 (PC-3)	GI50 (U-251)	GI50 (NCI-H23)	GI50 (HOP-62)	GI50 (HT-29)	GI50 (Malme-3M)	GI50 (HCC 2998)
Oc1cc(O)c2c(c1)OC(c1ccc(O)c(O)c1)C(O)C2c1c(O)cc(O)c2c1OC(c1ccc(O)c(O)c1)C(O)C2 (centres undefined)	> 100 µM (inactive)	> 100 µM (inactive)	> 100 µM (inactive)	> 100 µM (inactive)	> 100 µM (inactive)	> 100 µM (inactive)	> 100 µM (inactive)	> 100 µM	> 100 µM (inactive)	> 100 µM (inactive)	> 100 µM (inactive)	> 100 µM (inactive)	> 100 µM (inactive)	> 100 µM (inactive)	> 100 µM (inactive)	> 100 µM (inactive)	> 100 µM (inactive)	> 100 µM (inactive)	
COc1ccc(NC(=S)C#N)cc1	> 100 µM (inactive)		> 100 µM (inactive)		> 100 µM (inactive)	> 100 µM (inactive)		> 100 µM	> 100 µM (inactive)	> 100 µM (inactive)	> 100 µM (inactive)	> 100 µM (inactive)	> 100 µM (inactive)	> 100 µM (inactive)	> 100 µM (inactive)	> 100 µM (inactive)	> 100 µM (inactive)		> 100 µM (inactive)
Cc1ccc(/C=c2\cc3oc(=O)c4cccc(c4-3)c2=O)cc1	> 100 µM (inactive)	> 100 µM (inactive)	> 100 µM (inactive)			> 100 µM (inactive)	38.1 µM (inactive)	> 100 µM	97.7 µM (inactive)	59.3 µM (inactive)	> 100 µM (inactive)	> 100 µM (inactive)	> 100 µM (inactive)	63.7 µM (inactive)	> 100 µM (inactive)	> 100 µM (inactive)	> 100 µM (inactive)	> 100 µM (inactive)	> 100 µM (inactive)
NC(C(=O)O)C(O)c1c[nH]cn1 (centres undefined)	> 100 µM (inactive)	> 100 µM (inactive)	> 100 µM (inactive)	> 100 µM (inactive)	> 100 µM (inactive)	> 100 µM (inactive)	> 100 µM (inactive)	> 100 µM	> 100 µM (inactive)	> 100 µM (inactive)	> 100 µM (inactive)	> 100 µM (inactive)	> 100 µM (inactive)	> 100 µM (inactive)	> 100 µM (inactive)	> 100 µM (inactive)	> 100 µM (inactive)	> 100 µM (inactive)	
Cc1ccc([N+](=O)[O-])cc1S(=O)(=O)Nc1ccc(C2=NN(c3ccc([N+](=O)[O-])cc3[N+](=O)[O-])C(c3cccs3)C2)cc1 (centres undefined)	56.5 µM (inactive)	15.8 µM (inactive)	22.4 µM (inactive)	23.8 µM (inactive)	18.6 µM (inactive)	26.1 µM (inactive)	10.5 µM (inactive)	15.4 µM	22 µM (inactive)	16.4 µM (inactive)	17.3 µM (inactive)	18 µM (inactive)	25.9 µM (inactive)	19.5 µM (inactive)	18.7 µM (inactive)	19.2 µM (inactive)	25.9 µM (inactive)	25.9 µM (inactive)	
CC1=Nc2nc3ccccc3n2C(C)(C)C1		> 100 µM (inactive)	> 100 µM (inactive)	> 100 µM (inactive)	> 100 µM (inactive)	> 100 µM (inactive)	> 100 µM (inactive)	> 100 µM	> 100 µM (inactive)	> 100 µM (inactive)	> 100 µM (inactive)		> 100 µM (inactive)	> 100 µM (inactive)	> 100 µM (inactive)	> 100 µM (inactive)	> 100 µM (inactive)	4.54 µM (inactive)	
COc1ccc(-c2c3c(n(C4OC(COC(C)=O)C(OC(C)=O)C(OC(C)=O)C4OC(C)=O)c(=S)c2C#N)CCCC3)cc1 (centres undefined)	61.9 µM (inactive)	53 µM (inactive)	55.6 µM (inactive)		33.7 µM (inactive)	> 100 µM (inactive)	25.3 µM (inactive)	41.5 µM	69 µM (inactive)	34.2 µM (inactive)	> 100 µM (inactive)	> 100 µM (inactive)	19.5 µM (inactive)	45 µM (inactive)	37.9 µM (inactive)	89.3 µM (inactive)	> 100 µM (inactive)	82.6 µM (inactive)	> 100 µM (inactive)
COC(=O)c1ccc(/C=C(\c2ccc([N+](=O)[O-])o2)S(=O)(=O)c2ccc(NC(C)=O)cc2)o1	4.69 µM (inactive)	11.9 µM (inactive)	3.09 µM (inactive)	2.1 µM (inactive)	3.69 µM (inactive)	19 µM (inactive)	2.03 µM (inactive)	2.45 µM	3.42 µM (inactive)	13.6 µM (inactive)	5.36 µM (inactive)	0.0579 µM (active)	14.8 µM (inactive)	14.1 µM (inactive)	13.9 µM (inactive)	14.4 µM (inactive)	2.59 µM (inactive)	2.49 µM (inactive)	
OCC1NC(COC2OC(CO)C(O)C(O)C2O)C(O)C(O)C1O (centres undefined)	> 100 µM (inactive)		> 100 µM (inactive)		> 100 µM (inactive)		> 100 µM (inactive)	> 100 µM	> 100 µM (inactive)	> 100 µM (inactive)	> 100 µM (inactive)	> 100 µM (inactive)	> 100 µM (inactive)	> 100 µM (inactive)	> 100 µM (inactive)		> 100 µM (inactive)	> 100 µM (inactive)	> 100 µM (inactive)
COC(=O)[C@@H](NC(=O)N(Cc1ccccc1)C[C@H](CC(C)C)NC(=O)[C@@H](NC(=O)OC(C)(C)C)C(C)C)C(C)C	> 100 µM (inactive)	> 100 µM (inactive)	> 100 µM (inactive)	88.1 µM (inactive)	> 100 µM (inactive)	> 100 µM (inactive)	> 100 µM (inactive)	> 100 µM	> 100 µM (inactive)	> 100 µM (inactive)			> 100 µM (inactive)	> 100 µM (inactive)	> 100 µM (inactive)	> 100 µM (inactive)	> 100 µM (inactive)	> 100 µM (inactive)	> 100 µM (inactive)
O=C(O)CSc1nnc(COc2ccc(Cl)cc2)n1-c1ccccc1	> 100 µM (inactive)	> 100 µM (inactive)	> 100 µM (inactive)		> 100 µM (inactive)	> 100 µM (inactive)	> 100 µM (inactive)	> 100 µM	> 100 µM (inactive)	> 100 µM (inactive)	> 100 µM (inactive)	> 100 µM (inactive)	> 100 µM (inactive)	> 100 µM (inactive)	> 100 µM (inactive)	> 100 µM (inactive)	> 100 µM (inactive)	> 100 µM (inactive)	> 100 µM (inactive)
C/C=C/C=N/N(C(=O)c1cc([N+](=O)[O-])cc([N+](=O)[O-])c1)C1=NN=C(c2ccccc2)C(c2ccccc2)N1 (centres undefined)	97.7 µM (inactive)	> 100 µM (inactive)	97.5 µM (inactive)		> 100 µM (inactive)	> 100 µM (inactive)	21.4 µM (inactive)	41.4 µM	89.9 µM (inactive)	47.2 µM (inactive)		57.9 µM (inactive)		> 100 µM (inactive)	26.9 µM (inactive)	> 100 µM (inactive)	35.6 µM (inactive)	25.6 µM (inactive)	34 µM (inactive)
CO/C(N)=C(C#N)/N=C/c1cccnc1	> 100 µM (inactive)	> 100 µM (inactive)			> 100 µM (inactive)	> 100 µM (inactive)		> 100 µM	> 100 µM (inactive)	> 100 µM (inactive)	> 100 µM (inactive)	> 100 µM (inactive)	> 100 µM (inactive)	> 100 µM (inactive)	> 100 µM (inactive)	> 100 µM (inactive)	> 100 µM (inactive)	> 100 µM (inactive)	> 100 µM (inactive)
COc1cccc(C2SCC(=O)N2c2ccc(-n3c(-c4ccccc4)nc4ccccc4c3=O)cc2)c1OC (centres undefined)	> 100 µM (inactive)	> 100 µM (inactive)	> 100 µM (inactive)	> 100 µM (inactive)	> 100 µM (inactive)	> 100 µM (inactive)	> 100 µM (inactive)	> 100 µM	> 100 µM (inactive)	> 100 µM (inactive)		> 100 µM (inactive)	> 100 µM (inactive)	> 100 µM (inactive)	> 100 µM (inactive)	> 100 µM (inactive)	> 100 µM (inactive)	> 100 µM (inactive)	> 100 µM (inactive)
COc1ccc(CNc2nc3ccccc3nc2-c2cccs2)cc1	> 100 µM (inactive)	97.9 µM (inactive)	57.5 µM (inactive)	23.4 µM (inactive)	23.8 µM (inactive)	43.4 µM (inactive)	23.5 µM (inactive)	35.4 µM	28.9 µM (inactive)	> 100 µM (inactive)	28.3 µM (inactive)			28.8 µM (inactive)	62.4 µM (inactive)	> 100 µM (inactive)	18.9 µM (inactive)	50.1 µM (inactive)	45.6 µM (inactive)
C[C@H]1CCC2C(CN3CCCCC3)C(=O)OC2[C@]2(C)C(=O)CC(N3CCCCC3)C12O (some centres undefined)	4.18 µM (inactive)	4 µM (inactive)	2.8 µM (inactive)		1.86 µM (inactive)	28.6 µM (inactive)	1.38 µM (inactive)		1.79 µM (inactive)	6.95 µM (inactive)		3.75 µM (inactive)		5.53 µM (inactive)	4.3 µM (inactive)		3.9 µM (inactive)	9.44 µM (inactive)	5.87 µM (inactive)
